Holding throughout (test): relative viability (nuclei count vs DMSO), 5 days (fraction); higher = more cells survive
Compound in the experiment “Doramapimod + Navitoclax”: Cc1ccc(-n2nc(C(C)(C)C)cc2NC(=O)Nc2ccc(OCCN3CCOCC3)c3ccccc23)cc1 [Doramapimod] + CC1(C)CCC(c2ccc(Cl)cc2)=C(CN2CCN(c3ccc(C(=O)NS(=O)(=O)c4ccc(N[C@H](CCN5CCOCC5)CSc5ccccc5)c(S(=O)(=O)C(F)(F)F)c4)cc3)CC2)C1 [Navitoclax] (partner 0.5 µM)
In short, it runs like this: (§1)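 Relative viability was taken as the ratio of nuclei in treated wells to nuclei in vehicle wells. Lung cancer cell lines in 1536-well plates received compounds by pin tool one day after seeding, either one drug alone or a fixed anchor-drug dose plus five library-drug doses (not always all listed) in √10 steps. Nuclei were counted on 4× images after 5 days of treatment, and values are medians of duplicate plates.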

Compound in the experiment “IPA-3 + Dasatinib”: C1=CC=C2C(=C1)C=CC(=C2SSC3=C(C=CC4=CC=CC=C43)O)O [IPA-3] + Cc1nc(Nc2ncc(C(=O)Nc3c(C)cccc3Cl)s2)cc(N2CCN(CCO)CC2)n1 [Dasatinib] (partner 0.075 µM)
In outline:
as §1

Compound in experiment [1]: Cc1ccc(-n2nc(C(C)(C)C)cc2NC(=O)Nc2ccc(OCCN3CCOCC3)c3ccccc23)cc1 [Doramapimod] + CC(=O)c1c(C)c2cnc(Nc3ccc(N4CCNCC4)cn3)nc2n(C2CCCC2)c1=O [Palbociclib] (partner 0.5 µM)
In short, it runs like this: as §1

Compound in the experiment “Doramapimod + Pemetrexed”: Cc1ccc(-n2nc(C(C)(C)C)cc2NC(=O)Nc2ccc(OCCN3CCOCC3)c3ccccc23)cc1 [Doramapimod] + Nc1nc2[nH]cc(CCc3ccc(C(=O)N[C@@H](CCC(=O)O)C(=O)O)cc3)c2c(=O)[nH]1 [Pemetrexed] (partner 0.2 µM)
In short, it runs like this:
as §1

For Calu-6, the relative viability turned out to be 0.885 with Doramapimod + Navitoclax (first compound 0.02 µM); 0.894 with Doramapimod + Navitoclax (first compound 0.06325 µM); 0.899 with Doramapimod + Navitoclax (first compound 0.2 µM); 0.92 in the experiment with Doramapimod + Navitoclax (first compound 0.6325 µM); 0.846 with Doramapimod + Navitoclax (first compound 2 µM).

In the case of ChaGo-K-1, the relative viability is 0.699 in the experiment with IPA-3 + Dasatinib (first compound 0.2 µM); 0.54 with IPA-3 + Dasatinib (first compound 0.6325 µM); 0.526 with IPA-3 + Dasatinib (first compound 2 µM); 0.621 with IPA-3 + Dasatinib (first compound 6.325 µM); 0.614 with IPA-3 + Dasatinib (first compound 20 µM); 0.928 in experiment [1] (first compound 0.02 µM). The relative viability in experiment [1] (first compound 0.06325 µM) was determined as 0.906; in experiment [1] (first compound 0.2 µM), 0.918; in experiment [1] (first compound 0.6325 µM), 0.942; in experiment [1] (first compound 2 µM), 0.823; in the experiment with Doramapimod + Navitoclax (first compound 0.02 µM), 1.07; with Doramapimod + Navitoclax (first compound 0.06325 µM), 1.25. Also, the relative viability in the experiment with Doramapimod + Navitoclax (first compound 0.2 µM) was 1.24; with Doramapimod + Navitoclax (first compound 2 µM), 1.01; with Doramapimod + Pemetrexed (first compound 0.02 µM), 0.263; with Doramapimod + Pemetrexed (first compound 0.06325 µM), 0.254; with Doramapimod + Pemetrexed (first compound 0.2 µM), 0.255; with Doramapimod + Pemetrexed (first compound 0.6325 µM), 0.26. Moreover, the relative viability with Doramapimod + Pemetrexed (first compound 2 µM) was 0.243.

As to EBC-1, the relative viability came out at 0.428 with Doramapimod + Navitoclax (first compound 0.02 µM); 0.335 with Doramapimod + Navitoclax (first compound 0.06325 µM); 0.332 with Doramapimod + Navitoclax (first compound 0.2 µM); 0.417 with Doramapimod + Navitoclax (first compound 0.6325 µM); 0.372 in the experiment with Doramapimod + Navitoclax (first compound 2 µM).

For EKVX, the relative viability was found to be 0.538 with IPA-3 + Dasatinib (first compound 0.2 µM); 0.544 with IPA-3 + Dasatinib (first compound 0.6325 µM); 0.599 with IPA-3 + Dasatinib (first compound 2 µM); 0.537 with IPA-3 + Dasatinib (first compound 6.325 µM); 0.486 with IPA-3 + Dasatinib (first compound 20 µM); 0.427 in experiment [1] (first compound 0.02 µM). For the same cell line, the relative viability came to 0.351 in experiment [1] (first compound 0.06325 µM); 0.366 in experiment [1] (first compound 0.2 µM); 0.337 in experiment [1] (first compound 0.6325 µM); 0.342 in experiment [1] (first compound 2 µM); 0.677 in the experiment with Doramapimod + Navitoclax (first compound 0.02 µM); 0.915 in the experiment with Doramapimod + Navitoclax (first compound 0.06325 µM). Also, the relative viability came out at 0.936 in the experiment with Doramapimod + Navitoclax (first compound 0.2 µM); 0.895 with Doramapimod + Navitoclax (first compound 0.6325 µM); 0.934 in the experiment with Doramapimod + Navitoclax (first compound 2 µM); 0.426 with Doramapimod + Pemetrexed (first compound 0.02 µM); 0.34 in the experiment with Doramapimod + Pemetrexed (first compound 0.06325 µM); 0.325 with Doramapimod + Pemetrexed (first compound 0.2 µM). For the same cell line, the relative viability is 0.415 with Doramapimod + Pemetrexed (first compound 0.6325 µM) and 0.357 with Doramapimod + Pemetrexed (first compound 2 µM).

With EMC-BAC-2, the relative viability with IPA-3 + Dasatinib (first compound 0.2 µM) turned out to be 0.309; in the experiment with IPA-3 + Dasatinib (first compound 0.6325 µM), 0.458; with IPA-3 + Dasatinib (first compound 2 µM), 0.302; in the experiment with IPA-3 + Dasatinib (first compound 6.325 µM) it was 0.311; with IPA-3 + Dasatinib (first compound 20 µM) it was 0.292; in experiment [1] (first compound 0.02 µM), 0.512. The relative viability worked out at 0.501 in experiment [1] (first compound 0.06325 µM); 0.508 in experiment [1] (first compound 0.2 µM); 0.503 in experiment [1] (first compound 0.6325 µM); 0.465 in experiment [1] (first compound 2 µM); 1.18 in the experiment with Doramapimod + Navitoclax (first compound 0.02 µM); 1.17 with Doramapimod + Navitoclax (first compound 0.06325 µM). Also, the relative viability amounted to 1.16 with Doramapimod + Navitoclax (first compound 0.2 µM); 1.25 in the experiment with Doramapimod + Navitoclax (first compound 0.6325 µM); 0.99 in the experiment with Doramapimod + Navitoclax (first compound 2 µM); 0.455 with Doramapimod + Pemetrexed (first compound 0.02 µM); 0.426 with Doramapimod + Pemetrexed (first compound 0.06325 µM); 0.418 with Doramapimod + Pemetrexed (first compound 0.2 µM). For the same cell line, the results for the relative viability with Doramapimod + Pemetrexed (first compound 0.6325 µM) and with Doramapimod + Pemetrexed (first compound 2 µM) were 0.46 and 0.369, respectively.

As to EPLC-272H, the relative viability with IPA-3 + Dasatinib (first compound 0.2 µM) worked out at 0.337; in the experiment with IPA-3 + Dasatinib (first compound 0.6325 µM) it was 0.325; with IPA-3 + Dasatinib (first compound 2 µM), 0.413; with IPA-3 + Dasatinib (first compound 6.325 µM) it was 0.411; in the experiment with IPA-3 + Dasatinib (first compound 20 µM) it was 0.543; in experiment [1] (first compound 0.02 µM), 0.356. Further, the relative viability worked out at 0.342 in experiment [1] (first compound 0.06325 µM); 0.345 in experiment [1] (first compound 0.2 µM); 0.286 in experiment [1] (first compound 2 µM); 1.14 in the experiment with Doramapimod + Navitoclax (first compound 0.02 µM); 0.943 with Doramapimod + Navitoclax (first compound 0.06325 µM); 1.12 with Doramapimod + Navitoclax (first compound 0.2 µM). For the same cell line, the relative viability with Doramapimod + Navitoclax (first compound 0.6325 µM) was found to be 1.23; in the experiment with Doramapimod + Navitoclax (first compound 2 µM), 0.978; with Doramapimod + Pemetrexed (first compound 0.02 µM) it was 0.351; with Doramapimod + Pemetrexed (first compound 0.06325 µM), 0.301; with Doramapimod + Pemetrexed (first compound 0.2 µM), 0.303; with Doramapimod + Pemetrexed (first compound 0.6325 µM), 0.374. Besides, the relative viability with Doramapimod + Pemetrexed (first compound 2 µM) worked out at 0.327.

For H3255, the relative viability with IPA-3 + Dasatinib (first compound 0.2 µM) amounted to 0.387; with IPA-3 + Dasatinib (first compound 0.6325 µM), 0.249; in the experiment with IPA-3 + Dasatinib (first compound 2 µM), 0.428; with IPA-3 + Dasatinib (first compound 6.325 µM), 0.335; with IPA-3 + Dasatinib (first compound 20 µM) it was 0.284; in experiment [1] (first compound 0.02 µM), 0.334. Also, the relative viability in experiment [1] (first compound 0.06325 µM) was 0.302; in experiment [1] (first compound 0.2 µM), 0.318; in experiment [1] (first compound 0.6325 µM) it was 0.292; in experiment [1] (first compound 2 µM), 0.345; in the experiment with Doramapimod + Navitoclax (first compound 0.02 µM) it was 0.531; with Doramapimod + Navitoclax (first compound 0.06325 µM), 0.586. The relative viability was found to be 0.553 with Doramapimod + Navitoclax (first compound 0.2 µM); 0.636 with Doramapimod + Navitoclax (first compound 0.6325 µM); 0.479 with Doramapimod + Navitoclax (first compound 2 µM); 0.577 in the experiment with Doramapimod + Pemetrexed (first compound 0.02 µM); 0.56 in the experiment with Doramapimod + Pemetrexed (first compound 0.06325 µM); 0.562 with Doramapimod + Pemetrexed (first compound 0.2 µM). Also, the relative viability with Doramapimod + Pemetrexed (first compound 0.6325 µM) was 0.559; with Doramapimod + Pemetrexed (first compound 2 µM), 0.525.

On to HARA, for which the relative viability came to 0.264 with IPA-3 + Dasatinib (first compound 0.2 µM); 0.245 in the experiment with IPA-3 + Dasatinib (first compound 0.6325 µM); 0.286 with IPA-3 + Dasatinib (first compound 2 µM); 0.348 with IPA-3 + Dasatinib (first compound 6.325 µM); 0.277 with IPA-3 + Dasatinib (first compound 20 µM); 0.232 in experiment [1] (first compound 0.02 µM). Moreover, the relative viability was 0.275 in experiment [1] (first compound 0.06325 µM); 0.262 in experiment [1] (first compound 0.2 µM); 0.297 in experiment [1] (first compound 0.6325 µM); 0.264 in experiment [1] (first compound 2 µM); 1.1 with Doramapimod + Navitoclax (first compound 0.02 µM); 1.13 with Doramapimod + Navitoclax (first compound 0.06325 µM). The relative viability is 1.12 with Doramapimod + Navitoclax (first compound 0.2 µM); 1.11 with Doramapimod + Navitoclax (first compound 0.6325 µM); 1.07 in the experiment with Doramapimod + Navitoclax (first compound 2 µM); 0.246 with Doramapimod + Pemetrexed (first compound 0.02 µM); 0.234 with Doramapimod + Pemetrexed (first compound 0.06325 µM); 0.266 with Doramapimod + Pemetrexed (first compound 0.2 µM). Moreover, the values for the relative viability in the experiment with Doramapimod + Pemetrexed (first compound 0.6325 µM) and with Doramapimod + Pemetrexed (first compound 2 µM) were 0.314 and 0.225, respectively.

The record behind these values is the supplement of paper PMC10307832.
